Some test systems named below: HCT-116; MDA-MB-435; SN12C; SK-MEL-2; HCT-15; OVCAR-4; PC-3; EKVX; Malme-3M; NCI-H23; HT-29; SR; SF-268; NCI-H460; ACHN; MOLT-4; A498; SF-539; IGROV-1; Hs-578T.
Common to all, as to test: NCI tumour cell line growth inhibition, 48 h

The values that follow come from ChEMBL document CHEMBL1201862, “PubChem BioAssay data set” (2004).

Molecules are shown by their SMILES.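 Dose response: 5 concentrations. Exposure: 48 h. Format: 96-well plates. Endpoint: linear interpolation; highest concentration if not reached. GI50: concentration for 50% inhibition of growth.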 The source made the active and inactive calls. Rule as the data show it: active = GI50 up to about 1.1 µM and inactive = higher.

Turning to `CC(C)(NO)/C(=N\O)c1ccccc1`, the GI50 in the experiment with HCT-116 was > 10 µM (inactive); in the experiment on MDA-MB-435, > 10 µM (inactive); in the experiment with SN12C, > 10 µM (inactive); with SK-MEL-2 it was > 10 µM (inactive); in the experiment on HCT-15, > 10 µM; in the experiment with OVCAR-4 it was > 10 µM (inactive). Moreover, the GI50 in the experiment on PC-3, with EKVX, with Malme-3M, with NCI-H23, in the experiment on HT-29 and with SR was > 10 µM (inactive) each time. For the same compound, the GI50 in the experiment on SF-268, in the experiment with NCI-H460, in the experiment with ACHN and in the experiment with MOLT-4 was > 10 µM (inactive) each time.

Take `COc1cc(CNc2cnc3cc(N)ccc3n2)cc(OC)c1OC`: the GI50 in the experiment with A498 is 26.5 µM (inactive); in the experiment with SF-539, 19.4 µM (inactive); with HCT-116, 18.7 µM (inactive); with SN12C, 54.5 µM (inactive); with SK-MEL-2, 1.14 µM (inactive); with HCT-15 it was 23 µM. Besides, the GI50 with OVCAR-4 was > 100 µM (inactive); with EKVX, 76.7 µM (inactive); in the experiment with Malme-3M, 52.5 µM (inactive); in the experiment with NCI-H23, 28.5 µM (inactive); with HT-29 it was 16.9 µM (inactive); in the experiment with SR, 5.65 µM (inactive). Further, the GI50 is > 100 µM (inactive) in the experiment with SF-268; 30.8 µM (inactive) in the experiment on NCI-H460; 66.1 µM (inactive) in the experiment on ACHN; 15.9 µM (inactive) with MOLT-4; 39.3 µM (inactive) with IGROV-1.

With `CCOC(=O)C=C1CCC2(CC1)OCCO2`, the GI50 in the experiment on A498 is > 100 µM (inactive); with SF-539, > 100 µM (inactive); in the experiment with HCT-116, > 100 µM (inactive); in the experiment with SN12C it was > 100 µM (inactive); in the experiment with SK-MEL-2 it was > 100 µM (inactive); with HCT-15, > 100 µM. The GI50 with OVCAR-4, with Malme-3M, in the experiment with NCI-H23, in the experiment with HT-29, in the experiment on SR and in the experiment on SF-268 was > 100 µM (inactive) throughout. Besides, the GI50 in the experiment on NCI-H460, in the experiment on ACHN, in the experiment on MOLT-4 and with IGROV-1 was > 100 µM (inactive) each time.

As to `Cc1ccc(C2(O)CC(c3ccc([N+](=O)[O-])o3)=NN2C(=O)COc2ccccc2Cl)cc1` (configuration not stated), the GI50 with A498 is 12.9 µM (inactive); with SF-539, 17.4 µM (inactive); in the experiment with HCT-116 it was 5.6 µM (inactive); in the experiment on SN12C, 8.22 µM (inactive); in the experiment with SK-MEL-2, 8.07 µM (inactive); with HCT-15 it was 4.68 µM. The GI50 was 17.3 µM (inactive) with OVCAR-4; 13.6 µM (inactive) in the experiment on EKVX; 13.8 µM (inactive) in the experiment with Malme-3M; 12.4 µM (inactive) in the experiment with NCI-H23; 4.21 µM (inactive) in the experiment with HT-29; 3.24 µM (inactive) in the experiment with SR. Moreover, the GI50 is 10.5 µM (inactive) in the experiment on SF-268; 5.73 µM (inactive) in the experiment on NCI-H460; 5.08 µM (inactive) in the experiment with ACHN; 3.91 µM (inactive) with MOLT-4; 15.9 µM (inactive) in the experiment on IGROV-1.

With `O=C1NC(=O)c2ccccc2/C1=C/c1ccc2c(c1)OCO2`, the GI50 in the experiment with A498 is > 100 µM (inactive); with SF-539, 21.5 µM (inactive); in the experiment on HCT-116, 5 µM (inactive); with MDA-MB-435 it was 18.4 µM (inactive); in the experiment with SN12C it was 19.9 µM (inactive); with SK-MEL-2, 24.6 µM (inactive). Further, the GI50 was 15.6 µM with HCT-15; 10.4 µM (inactive) in the experiment on Hs-578T; 49.1 µM (inactive) in the experiment with OVCAR-4; 51.1 µM (inactive) with EKVX; 31.3 µM (inactive) in the experiment on Malme-3M; 22.3 µM (inactive) with NCI-H23. The GI50 in the experiment on HT-29 is 20.8 µM (inactive); in the experiment with SR it was 36 µM (inactive); in the experiment on SF-268, 21.8 µM (inactive); with ACHN, 15.8 µM (inactive); in the experiment on MOLT-4, 11.5 µM (inactive); with IGROV-1, 23.7 µM (inactive).

As for `CCc1n[nH]c(=O)n1CCO`, the GI50 with A498, in the experiment on SF-539, in the experiment on HCT-116, in the experiment with MDA-MB-435, in the experiment with SN12C and with SK-MEL-2 was > 100 µM (inactive) throughout. Further, the GI50 is > 100 µM with HCT-15; > 100 µM (inactive) in the experiment with OVCAR-4; > 100 µM (inactive) with PC-3; > 100 µM (inactive) in the experiment with EKVX; > 100 µM (inactive) in the experiment on NCI-H23; > 100 µM (inactive) with HT-29. The GI50 in the experiment on NCI-H460, with ACHN, in the experiment on MOLT-4 and with IGROV-1 was > 100 µM (inactive) in each case.

In the case of `COc1ccc2c(c1)OCC1(O)Cc3ccccc3OC21` (configuration not stated), the GI50 with A498, with SF-539, in the experiment with HCT-116, with MDA-MB-435, in the experiment on SN12C and in the experiment with SK-MEL-2 was > 100 µM (inactive) throughout. For the same compound, the GI50 was > 100 µM in the experiment on HCT-15; 49.3 µM (inactive) in the experiment on OVCAR-4; > 100 µM (inactive) with PC-3; > 100 µM (inactive) in the experiment on EKVX; > 100 µM (inactive) in the experiment with Malme-3M; > 100 µM (inactive) in the experiment on NCI-H23. The GI50 in the experiment on HT-29 is > 100 µM (inactive); with SR, > 100 µM (inactive); in the experiment with SF-268, > 100 µM (inactive); with ACHN, > 100 µM (inactive); with MOLT-4, 78.9 µM (inactive); in the experiment with IGROV-1, > 100 µM (inactive).

Take `CC12OC3CC(O1)C1(C=O)C4CCC5(C)C(c6ccc(=O)oc6)CCC5(O)C4CCC1(C3)O2` (configuration not stated): the GI50 is 0.33 µM (active) in the experiment on A498; 0.102 µM (active) in the experiment with SF-539; 0.0537 µM (active) in the experiment with HCT-116; 0.0621 µM (active) in the experiment with SN12C; 0.268 µM (active) with SK-MEL-2; 0.212 µM in the experiment on HCT-15. Also, the GI50 with OVCAR-4 was 0.155 µM (active); in the experiment on Malme-3M, 0.198 µM (active); in the experiment with HT-29, 0.385 µM (active); in the experiment with SR, 0.0498 µM (active); in the experiment on SF-268, 0.103 µM (active); with NCI-H460, 0.0518 µM (active). Further, the GI50 with ACHN was 0.0476 µM (active); with MOLT-4 it was 0.0344 µM (active); with IGROV-1 it was 0.341 µM (active).

For `N#Cc1c2nc3ccccc3nc2n2ccccc12`, the GI50 in the experiment on A498 was 76 µM (inactive); with SF-539, > 100 µM (inactive); in the experiment with HCT-116 it was > 100 µM (inactive); with SN12C it was > 100 µM (inactive); in the experiment on SK-MEL-2, > 100 µM (inactive); in the experiment with HCT-15, > 100 µM. For the same compound, the GI50 in the experiment with OVCAR-4, in the experiment on EKVX, with Malme-3M, with NCI-H23, in the experiment on SR and in the experiment with SF-268 was > 100 µM (inactive) throughout. For the same compound, the GI50 in the experiment with NCI-H460, in the experiment on ACHN, in the experiment with MOLT-4 and in the experiment with IGROV-1 was > 100 µM (inactive) throughout.

In the case of `CCc1n[nH]c(=O)n1O`, the GI50 in the experiment on A498, in the experiment on SF-539, with HCT-116, in the experiment with MDA-MB-435, in the experiment with SN12C and in the experiment with SK-MEL-2 was > 100 µM (inactive) in each case. Moreover, the GI50 in the experiment with Hs-578T, in the experiment on OVCAR-4, in the experiment with EKVX, in the experiment on Malme-3M, in the experiment with NCI-H23 and with HT-29 was > 100 µM (inactive) each time. The GI50 in the experiment with SR, in the experiment with SF-268, in the experiment on ACHN, with MOLT-4 and with IGROV-1 was > 100 µM (inactive) in each case.

Regarding `CCN(CC)Cc1nc2sc3c(c2c(=O)n1-c1ccccc1)CCCC3`, the GI50 in the experiment on A498 is 15.3 µM (inactive); in the experiment on HCT-116 it was 18.7 µM (inactive); in the experiment on SN12C it was 19.5 µM (inactive); in the experiment on SK-MEL-2, 19.1 µM (inactive); with HCT-15, 23.8 µM; in the experiment with Hs-578T, 34.5 µM (inactive). Moreover, the GI50 with OVCAR-4 was 15.6 µM (inactive); in the experiment with PC-3 it was 15.9 µM (inactive); with EKVX it was 19.8 µM (inactive); with Malme-3M it was 23.3 µM (inactive); in the experiment on NCI-H23 it was 35.1 µM (inactive); in the experiment on HT-29 it was 12.9 µM (inactive). Moreover, the GI50 with SR was 34.5 µM (inactive); with SF-268, 21.1 µM (inactive); with NCI-H460, 19.6 µM (inactive); in the experiment with ACHN, 20 µM (inactive); with MOLT-4, 17.4 µM (inactive); in the experiment with IGROV-1 it was 18.7 µM (inactive).

As to `Oc1ccc(/C=N/c2nccs2)c(O)c1`, the GI50 with SF-539 is > 100 µM (inactive); in the experiment with HCT-116 it was > 100 µM (inactive); in the experiment on HCT-15, > 100 µM; with Hs-578T, > 100 µM (inactive); in the experiment on PC-3 it was > 100 µM (inactive); with EKVX it was > 100 µM (inactive). The GI50 in the experiment with Malme-3M, in the experiment with NCI-H23, with HT-29, with SF-268, in the experiment with NCI-H460 and with ACHN was > 100 µM (inactive) throughout. Besides, the GI50 in the experiment on IGROV-1 is > 100 µM (inactive).
